{"source": "paper PMC6136712", "about": "“Ex vivo drug sensitivity testing as a means for drug repurposing in esophageal adenocarcinoma” (PLoS ONE, 2018)", "assay_type_in_all_cases": "cell-based, human", "key": {"[1]": {"system": "normal esophageal epithelium cell line EACN42", "assay": "FDA library drug sensitivity testing (CellTiter-Glo, 72 h), normal control cells", "set-up": "key to DSS: modified drug sensitivity score (DSSmod) from dose-response curve fit", "conditions": "EACN42 normal esophageal cells, 72 h; for EC50: cell viability (ATP), max test concentration 10μM; for DSS: drug sensitivity score", "procedure,_shortened": "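HPV E6-E7-immortalized normal human esophageal epithelial cells, 1000 per well, exposed 72 h at 37 °C to drugs in duplicate from 10μM top concentration across a 20,000-fold range. Viability by ATP bioluminescence; DMSO wells as negative control; curves scored with modified drug sensitivity score (DSSmod).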"}, "EAC47 cells [2]": {"system": "EAC47 cells", "assay": "Clonogenic survival assay", "experimental": "(§1) Clonogenic assays were performed as described previously. […] Colony formation was evaluated 14 days after seeding. All experiments were performed in triplicates and two biological replicates. Statistical analyses were performed in GraphPad prism."}, "EAC42 cells [3]": {"system": "EAC42 cells", "assay": "Clonogenic survival assay", "experimental": "as §1"}, "EAC47 cells [4]": {"system": "EAC47 cells", "assay": "FDA library drug sensitivity testing (CellTiter-Glo, 72 h)", "procedure,_shortened": "(§2)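 1000 cells/well exposed 72 h at 37 °C to drugs in duplicate, top concentration 10μM over a 20,000-fold range; DMSO wells as negative controls. Viability by ATP bioluminescence (CellTiter-Glo). Curves scored with the modified drug sensitivity score (DSSmod/sDSSmod).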"}, "EAC42 cells [5]": {"system": "EAC42 cells", "assay": "FDA library drug sensitivity testing (CellTiter-Glo, 72 h)", "procedure,_shortened": "as §2"}, "Flo-1 cells [6]": {"system": "Flo-1 cells", "assay": "Epigenetic compound library screen (CellTiter-Glo, 72 h)", "conditions": "Flo-1, 6μM; for cytotoxicity at 6 µM: Homo sapiens, read-out: % cell killing /control", "experimental": "(§3) We tested a 163 compound epigenetic library that consists of inhibitors and activators of epigenetic modifying enzymes (writers, erasers and readers). All compounds were dissolved in 100% DMSO and tested in duplicate at a nominal test concentration of 6μM. Wells with assay buffer containing DMSO served as negative controls. 1000 exponentially growing cells were seeded per well in 384-well micro-titer plates and incubated in the presence of compounds in a humidified environment at 37°C and 5% CO2. After 72 hours of treatment, cell viability was assessed by measuring ATP levels via bioluminescence (CellTiter-Glo, Promega). […] Curve fitting and statistical analyses are performed in GraphPad prism."}, "EAC47 cells [7]": {"system": "EAC47 cells", "assay": "Epigenetic compound library screen (CellTiter-Glo, 72 h)", "conditions": "EAC47, 6μM, 72 h; for cytotoxicity at 6 µM: Homo sapiens, read-out: % cell killing /control", "experimental": "as §3"}, "OE33 cells [8]": {"system": "OE33 cells", "assay": "Epigenetic compound library screen (CellTiter-Glo, 72 h)", "conditions": "OE33, 6μM; for cytotoxicity at 6 µM: Homo sapiens, read-out: % cell killing /control", "experimental": "as §3"}, "Flo-1 cells [9]": {"system": "Flo-1 cells", "assay": "FDA library drug sensitivity testing (CellTiter-Glo, 72 h)", "conditions": "Flo-1; sDSSmod = DSSmod (patient cells) - DSSmod (normal cells)", "excerpt": "OE33, OE19 and SKGT2 human esophageal adenocarcinoma cell lines were obtained from the European Collection of Cell Culture ([…]). Flo1, EAC42 and EAC47 cells were established in the Capobianco Laboratory. EAC42 and EAC47 human esophageal adenocarcinoma cell lines are derived from patients undergoing surgery at the Miller School of Medicine, University of Miami. The Capobianco laboratory obtained written informed consent from all patients and approval from the Institutional Research Ethics Committee.\nDrug sensitivity testing (DST) was performed as described previously. […] Individual drugs were dissolved in 100% DMSO and tested in duplicates starting at a maximal test concentration of 10μM then over a 20,000-fold concentration range to generate dose response curves. Wells with assay buffer containing DMSO served as negative controls. 1000 exponentially growing cells were seeded per well in 384-well micro-titer plates and incubated in the presence of compounds in a humidified environment at 37°C and 5% CO2. After 72 hours of treatment, cell viability was assessed by measuring ATP levels via bioluminescence (CellTiter-Glo, Promega) according to manufactures recommendations. Interpretation of curve parameters was performed according to the modified drug sensitivity scoring (DSSmod) function developed by Swords et al. As a final step, the selective DSSmod (sDSSmod) for each drug in each patient screen is calculated according to the formula sDSSmod = DSSmod (patient cells)—DSSmod (normal cells). Given in this way, the sDSSmod incorporated information on each drug’s potency, efficacy, effect range and therapeutic index, making it possible to prioritize compounds over multiple parameters using a single numerical metric. In addition, this methodology allows us to rank compounds by cancer-selective efficacy for each individual patient. […] All calculations and scoring routines are implemented in MatLab and additional curve fitting and statistical analyses are performed in GraphPad prism."}, "OE33 cells [10]": {"system": "OE33 cells", "assay": "FDA library drug sensitivity testing (CellTiter-Glo, 72 h)", "conditions": "OE33; sDSSmod = DSSmod (patient cells) - DSSmod (normal cells)", "procedure,_shortened": "as §2"}, "OE19 cells": {"system": "OE19 cells", "assay": "FDA library drug sensitivity testing (CellTiter-Glo, 72 h)", "conditions": "sDSSmod = DSSmod (patient cells) - DSSmod (normal cells)", "procedure,_shortened": "as §2"}}, "note": "Where a SMILES comes first, the peptide text is derived from it. [ ]: non-standard residue; d: D form. ξ: configuration not given here. Aoe(9ξ) = N[C@@H](CCCCCC(=O)C1CO1)C(=O)O; dPip = O=C(O)[C@H]1CCCCN1", "data": [{"smiles": "N.N.[Cl][Pt][Cl]", "note": "[Cisplatin]", "values": [{"measurement": "treatment response in words", "setting": "[1]", "result": "minimal treatment effects"}, {"measurement": "EC50", "setting": "[1]", "result": 10, "unit": "nM"}, {"measurement": "DSS", "setting": "[1]", "result": 0}, {"measurement": "clonogenic survival", "setting": "EAC47 cells [2]; EAC47, 10μM cisplatin for 24h", "result": 95.75, "unit": "%"}, {"measurement": "clonogenic survival", "setting": "EAC47 cells [2]; EAC47, 50μM cisplatin for 24h", "result": 28.64, "unit": "%"}, {"measurement": "clonogenic survival", "setting": "EAC42 cells [3]; EAC42, 10μM cisplatin for 24h", "result": 89.19, "unit": "%"}, {"measurement": "clonogenic survival", "setting": "EAC42 cells [3]; EAC42, 50μM cisplatin for 24h", "result": 50.1, "unit": "%"}, {"measurement": "reduction of cell survival in words", "setting": "EAC47 cells [4]; EAC47, concentration of 10μM", "result": "did not result in a reduction of cell survival"}, {"measurement": "reduction of cell survival in words", "setting": "EAC42 cells [5]; EAC42, concentration of 10μM", "result": "did not result in a reduction of cell survival"}]}, {"smiles": "O=C(/C=C/c1ccc(CN(CCO)CCc2c[nH]c3ccccc23)cc1)NO", "note": "[LAQ824]", "values": [{"measurement": "cytotoxicity at 6 µM", "setting": "Flo-1 cells [6]", "result": 96.8, "unit": "%"}, {"measurement": "cytotoxicity at 6 µM", "setting": "EAC47 cells [7]", "result": 108, "unit": "%"}, {"measurement": "cytotoxicity at 6 µM", "setting": "OE33 cells [8]", "result": 99, "unit": "%"}]}, {"smiles": "Nc1ccn([C@@H]2O[C@H](CO)[C@@H](O)C2(F)F)c(=O)n1", "note": "[Gemcitabine]", "values": [{"measurement": "EC50", "setting": "[1]", "result": 320, "unit": "nM"}, {"measurement": "DSS", "setting": "[1]", "result": 17.72}, {"measurement": "sDSSmod", "setting": "Flo-1 cells [9]", "result": -5}, {"measurement": "clonogenic survival", "setting": "EAC47 cells [2]; EAC47, 10nM gemcitabine for 2h, colonies after 14 days", "result": 63.28, "unit": "%"}, {"measurement": "clonogenic survival", "setting": "EAC42 cells [3]; EAC42, 10nM gemcitabine for 2h, colonies after 14 days", "result": 59.26, "unit": "%"}, {"measurement": "sDSSmod", "setting": "EAC47 cells [4]; EAC47, sDSSmod = DSSmod (patient cells) - DSSmod (normal cells)", "result": 8.407}, {"measurement": "EC50", "setting": "EAC47 cells [4]; Homo sapiens, EAC47, assay not stated explicitly, taken as DST screen, read-out: calculated EC50", "result": 10.7, "unit": "nM"}, {"measurement": "sDSSmod", "setting": "EAC42 cells [5]; EAC42, sDSSmod = DSSmod (patient cells) - DSSmod (normal cells)", "result": 14.66}, {"measurement": "EC50", "setting": "EAC42 cells [5]; Homo sapiens, EAC42, assay not stated explicitly, taken as DST screen, read-out: calculated EC50", "result": 6.6, "unit": "nM"}, {"measurement": "sDSSmod", "setting": "OE33 cells [10]", "result": 9.443}, {"measurement": "sDSSmod", "setting": "OE19 cells", "result": -16.819}]}, {"smiles": "Cn1cc(CNCC2CCN(c3ncc(C(=O)NO)cn3)CC2)c2ccccc21", "note": "[JNJ-26481585]", "values": [{"measurement": "% cell killing /control", "setting": "Flo-1 cells [6]", "result": 98.39, "unit": "%"}, {"measurement": "% cell killing /control", "setting": "EAC47 cells [7]", "result": 113.73, "unit": "%"}, {"measurement": "% cell killing /control", "setting": "OE33 cells [8]", "result": 99.54, "unit": "%"}]}, {"smiles": "O=C(CCCCC[C@@H]1NC(=O)[C@H]2CCCCN2C(=O)[C@H](Cc2ccccc2)NC(=O)[C@H](Cc2ccccc2)NC1=O)C1CO1", "note": "(some centres unmarked) [Trapoxin A] (cyclo(FF[dPip][Aoe(9ξ)]))", "values": [{"measurement": "cytotoxicity at 6 µM", "setting": "Flo-1 cells [6]", "result": 96.4, "unit": "%"}, {"measurement": "cytotoxicity at 6 µM", "setting": "EAC47 cells [7]", "result": 102, "unit": "%"}, {"measurement": "cytotoxicity at 6 µM", "setting": "OE33 cells [8]", "result": 98.9, "unit": "%"}]}, {"smiles": "COc1ccc(-c2nc(N3CCOCC3)c3sc(CN(C)c4ncc(C(=O)NO)cn4)cc3n2)cn1", "note": "[CUDC-907]", "values": [{"measurement": "cytotoxicity at 6 µM", "setting": "Flo-1 cells [6]", "result": 99.7, "unit": "%"}, {"measurement": "cytotoxicity at 6 µM", "setting": "EAC47 cells [7]", "result": 115, "unit": "%"}, {"measurement": "cytotoxicity at 6 µM", "setting": "OE33 cells [8]", "result": 99.4, "unit": "%"}]}, {"smiles": "CC(C)[C@H](C(=O)Nc1ccc(C(=O)NO)cc1)c1ccccc1", "note": "[(S)-HDAC-42]", "values": [{"measurement": "cytotoxicity at 6 µM", "setting": "Flo-1 cells [6]", "result": 84.6, "unit": "%"}, {"measurement": "cytotoxicity at 6 µM", "setting": "EAC47 cells [7]", "result": 76.5, "unit": "%"}, {"measurement": "cytotoxicity at 6 µM", "setting": "OE33 cells [8]", "result": 89.3, "unit": "%"}]}, {"smiles": "CCN(CC)Cc1ccc2cc(COC(=O)Nc3ccc(C(=O)NO)cc3)ccc2c1", "note": "[Givinostat (ITF2357), Givinostat]", "values": [{"measurement": "cytotoxicity at 6 µM", "setting": "Flo-1 cells [6]", "result": 90.9, "unit": "%"}, {"measurement": "cytotoxicity at 6 µM", "setting": "EAC47 cells [7]", "result": 96.8, "unit": "%"}, {"measurement": "cytotoxicity at 6 µM", "setting": "OE33 cells [8]", "result": 87.7, "unit": "%"}]}]}
